Experimental findings from ChEMBL document CHEMBL2417393, “Structure guided optimization of a fragment hit to imidazopyridine inhibitors of PI3K” (Bioorg Med Chem Lett, 2013) are described below.

As usually defined, the Papp B→A is how fast a substance crosses the layer from the basolateral side. In general, Papp A→B refers to how fast a substance crosses the layer from the apical side. One may read the solubility as how much of the substance goes into solution per volume. Read a low solubility as little dissolved substance. By AUC is commonly meant concentration integrated over time. Read a high AUC as high exposure. The half-life is how long it takes for the measured level to halve. As usually defined, the Cmax is the peak of the concentration-time curve. As usually defined, the bioavailability is the share of a dose that reaches the circulation, judged against a reference dose that is usually intravenous. A low value points to little systemic uptake. What is called logD is lipophilicity at a set pH, counting ionised and neutral species. High values mean a more lipophilic compound, low ones a more hydrophilic compound.

A short description of data set [1]: Apparent permeability from basolateral to apical side in human Caco2 cells. Type of data set: ADME, cell-based. To be noted: Caco-2. On the technique in general: Caco-2 cells form a polarised layer with tight junctions and transporters.
Data set [2] can be described thus: Apparent permeability from apical to basolateral side in human Caco2 cells. Type of data set: ADME, cell-based. The conditions noted are these: Caco-2.
Data set [3] is described as follows: Solubility of the compound in PBS buffer at pH 7.4. Type of data set: physicochemical.
Data set [4] can be described thus: AUC in rat at 10 mg/kg, po. Type of data set: ADME, organism-based. Also noted: dose 10 mg/kg, route oral. To be noted: plasma.
The nature of data set [5]: Half life in rat at 5 mg/kg, iv. Type of data set: ADME, organism-based. Also noted: dose 5 mg/kg, route intravenous. The conditions noted are these: in vivo.
Data set [6] in a line: Cmax in rat at 10 mg/kg, po. Type of data set: ADME, organism-based. To be noted: in vivo. Set-up: dose 10 mg/kg, route oral.
The nature of data set [7]: Bioavailability in rat at 5 mg/kg, iv. To be noted: in vivo. Type of data set: ADME, organism-based.
The nature of data set [8]: Clearance in rat at 5 mg/kg, iv. Type of data set: ADME, organism-based. Also noted: dose 5 mg/kg, route intravenous. To be noted: in vivo.
A short description of data set [9]: Half life in rat microsomes. Type of data set: ADME, Microsome.
A short description of data set [10]: Clearance in rat microsomes. Type of data set: ADME, Microsome.
Data set [11] can be described thus: Volume of distribution at steady state in rat at 5 mg/kg, iv. Also noted: dose 5 mg/kg, route intravenous. To be noted: in vivo, read-out: Vdss. Type of data set: ADME, organism-based.
Data set [12] can be described thus: Lipophilicity, log D of the compound at pH 7.4. To be noted: buffer. Type of data set: physicochemical.

The structures appear in SMILES notation. Converted amounts (≈) assume the structure as drawn.

As to `COc1cc(-c2ccc3nc(NC(C)=O)sc3c2)cnc1N`, in [1], the Papp B→A amounted to 18 ×10⁻⁶ cm/s. Besides, in data set [2], the Papp A→B amounted to 6.7 ×10⁻⁶ cm/s.

Consider `CC(=O)Nc1nc2ccc(-c3ccc(N)nc3)cc2s1`, for which the Papp B→A in data set [1] was 42 ×10⁻⁶ cm/s. Further, in data set [3], the solubility amounted to 4.2 µM (≈ 1.19 µg/mL). This molecule returned an area under the curve (AUC) in [4] of 16 µM·h. Moreover, the half-life is 150 min in data set [5] and 187 min in data set [9]. The Cmax in [6] worked out at 2500 nM. The bioavailability in data set [7] turned out to be 57%. Besides, the results for the clearance in data set [8] and in data set [10] were 19 mL/min/kg and 4 µL/min/mg, respectively. Besides, the Papp A→B in data set [2] was found to be 46 ×10⁻⁶ cm/s. In addition, the Vd in data set [11] was found to be 3.6 L/kg.

As for `CC(=O)Nc1nc2ccc(-c3cnc(N)c(C(F)(F)F)c3)cc2s1`, the Papp B→A in [1] came out at 13 ×10⁻⁶ cm/s. In data set [3], the concentration in solution (solubility) came to 1.5 µM (≈ 0.529 µg/mL). Besides, the AUC in data set [4] stood at 18 µM·h. Further, the Cmax in data set [6] came to 2900 nM. The half-life in [9] is 778 min. This molecule also returned a clearance in data set [10] of 8 µL/min/mg. Also, the apical-to-basolateral permeability (Papp A→B) in [2] came out at 16 ×10⁻⁶ cm/s.

Consider `Nc1ccc(-c2ccc3nc(NC(=O)CN4CCCCC4)sc3c2)cn1`, for which the concentration in solution in data set [3] (solubility) was 7.1 µM (≈ 2.61 µg/mL).

In turn, `Nc1ccc(-c2ccc3nc(NC(=O)CCCN4CCCCC4)sc3c2)cn1` had a solubility in data set [3] of 28 µM (≈ 11.1 µg/mL).

`Nc1ncc(-c2ccc3nc(NC(=O)CCCN4CCCCC4)sc3c2)cc1C(F)(F)F` came in with a solubility in [3] of 56 µM (≈ 26 µg/mL).

In data set [3], `Nc1ncc(-c2ccc3nc(NC(=O)CCCN4CCOCC4)sc3c2)cc1C(F)(F)F` had a solubility of 8.3 µM (≈ 3.86 µg/mL).

In the case of `CC(=O)Nc1cn2cc(-c3cnc(N)c(C(F)(F)F)c3)ccc2n1`, the Papp B→A in [1] turned out to be 40 ×10⁻⁶ cm/s. The AUC in data set [4] came out at 198 µM·h. The half-life in data set [5] is 180 min; in data set [9], 778 min. In data set [6], this molecule yielded a Cmax of 15700 nM. In addition, the bioavailability in [7] is 95%. In addition, the figures for the clearance in data set [8] and in [10] were 2 mL/min/kg and 8 µL/min/mg, respectively. The Papp A→B in data set [2] was 40 ×10⁻⁶ cm/s. In addition, in data set [11], the Vd was 0.68 L/kg.

Take `CC(=O)Nc1cn2cc(-c3cnc(N)c(C(F)(F)F)c3)ncc2n1`: the concentration in solution in [3] (solubility) came to 1 µM (≈ 0.336 µg/mL).

`CC(=O)Nc1nc2ccc(-c3cnc(N)c(C(F)(F)F)c3)cc2o1` returned a solubility in [3] of 1.3 µM (≈ 0.437 µg/mL).

In turn, `CC(=O)Nc1ncc2cc(-c3cnc(N)c(C(F)(F)F)c3)ccc2n1` came in with a solubility in data set [3] of 0.5 µM (≈ 0.174 µg/mL).

`CC(=O)Nc1cn2cc(-c3cnc(N)c(C(F)(F)F)c3)cnc2n1` had a solubility in data set [3] of 4.8 µM (≈ 1.61 µg/mL).

Regarding `CC(=O)Nc1nc2ccc(-c3cnc(N)c(C(F)(F)F)c3)cc2n1C`, the concentration in solution in [3] (solubility) came to 25 µM (≈ 8.73 µg/mL).

`COC(=O)c1ccc2nc(NC(C)=O)sc2c1` gave a logD in [12] of 1.5.
